Converted amounts (≈) assume the structure as drawn. “And” between values parts separate entries of the source, which are not always exact repeats. Identical values can stand only once.
How the values were obtained:
Experiment in all cases: ≥ marks a high value that may be exact or a test limit, other limits are often not marked, values filed in µg/mL are converted to µM
[1] = test system: Bacillus subtilis IFO 3513
[2] = test system: Staphylococcus aureus IFO 12732
[3] = test system: Escherichia coli IFO 12734
Candida albicans = test system: Candida albicans
Escherichia coli = test system: Escherichia coli
Listeria monocytogenes = test system: Listeria monocytogenes
[4] = test system: Neisseria gonorrhoeae FA-19
[5] = test system: Neisseria gonorrhoeae F-62
[6] = test system: Pseudomonas aeruginosa ATCC 15692
[7] = test system: Staphylococcus aureus Cowan 1
[8] = test system: Schizosaccharomyces pombe
[9] = test system: Staphylococcus epidermidis ATCC 12228
Saccharomyces cerevisiae = test system: Saccharomyces cerevisiae
Staphylococcus capitis 1 = test system: Staphylococcus capitis 1
[10] = test system: Candida albicans ATCC 10231
[11] = test system: Streptococcus pyogenes ATCC 21547
[12] = test system: Staphylococcus aureus ATCC 25923
[13] = test system: Yersinia pseudotuberculosis YPIII
Escherichia coli D21 = test system: Escherichia coli D21
Acinetobacter junii RT-4 = test system: Acinetobacter junii RT-4
Bacillus megaterium Bm11 = test system: Bacillus megaterium Bm11
[14] = test system: Enterococcus faecalis ATCC 29212
[15] = test system: Pseudomonas syringae pv. tabaci 1918NCPPB
[16] = test system: Escherichia coli ATCC 25922
[17] = test system: Acinetobacter baumannii ATCC 19606
Aerococcus viridans = test system: Aerococcus viridans
[18] = test system: Vibrio harveyi CGMCC 1.1593
[19] = test system: Staphylococcus haemolyticus
Vibrio anguillarum = test system: Vibrio anguillarum
Bacillus subtilis = test system: Bacillus subtilis
Micrococcus luteus = test system: Micrococcus luteus
Escherichia coli 363 = test system: Escherichia coli 363
Vibrio harveyi = test system: Vibrio harveyi
Aeromonas hydrophila = test system: Aeromonas hydrophila
[20] = test system: Streptococcus pyogenes ATCC 19615
Salmonella typhimurium = test system: Salmonella typhimurium
Corynebacterium xerosis = test system: Corynebacterium xerosis
Staphylococcus aureus MR = test system: Staphylococcus aureus MR
Staphylococcus aureus = test system: Staphylococcus aureus
Pseudomonas aeruginosa = test system: Pseudomonas aeruginosa
[21] = test system: Staphylococcus epidermidis
[22] = test system: Listeria monocytogenes NCTC 7973
Enterococcus faecalis = test system: Enterococcus faecalis
[23] = test system: Staphylococcus aureus SAP 0017

**Q.** What does the source list for `CC[C@H](C)[C@H](NC(=O)[C@H](CC(C)C)NC(=O)[C@@H]1CCCN1C(=O)[C@H](CCCCN)NC(=O)[C@H](CCCCN)NC(=O)[C@H](Cc1c[nH]c2ccccc12)NC(=O)[C@@H]1CCCN1C(=O)[C@H](CCCCN)NC(=O)[C@H](CC(C)C)NC(=O)[C@@H]1CCCN1C(=O)[C@H](Cc1c[nH]c2ccccc12)NC(=O)[C@H](CCCN=C(N)N)NC(=O)[C@@H](N)CCCN=C(N)N)C(N)=O` [RRWPLKPWKKPLI]?
**A.** MIC [1]: 3.64 µM (≈ 6.25 µg/mL); MIC [2]: 3.64 µM (≈ 6.25 µg/mL); MIC [3]: 29.1 µM (≈ 50 µg/mL)

**Q.** Which MIC (Candida albicans) does the source give for `CC[C@H](C)[C@@H]1NC(=O)[C@H](Cc2c[nH]c3ccccc23)NC(=O)CNC(=O)[C@H](CCCN=C(N)N)NC(=O)[C@@H]2CSSC[C@H](NC1=O)C(=O)N[C@@H](Cc1ccccc1)C(=O)N[C@H](C(=O)N[C@H](C(=O)NCC(=O)N[C@@H](CCCN=C(N)N)C(=O)O)C(C)C)CSSC[C@H](NC(=O)[C@H](CC(C)C)NC(=O)[C@H](CCCN=C(N)N)NC(=O)CNC(=O)CNC(=O)[C@@H](N)CCCN=C(N)N)C(=O)N[C@@H](Cc1ccc(O)cc1)C(=O)N2` [RGGRLCYCRGWICFCVGR] here?
**A.** 14.4 µM (≈ 30.3 µg/mL)

**Q.** And the MIC (Escherichia coli)?
**A.** 0.997 µM (≈ 2.1 µg/mL)

**Q.** And the MIC (Listeria monocytogenes)?
**A.** 0.902 µM (≈ 1.9 µg/mL)

**Q.** What about the MIC [4] of the same molecule?
**A.** 1.66 µM (≈ 3.49 µg/mL)

**Q.** And the MIC [5]?
**A.** 0.57 µM (≈ 1.2 µg/mL)

**Q.** What does the source list for `CC[C@H](C)[C@H](NC(=O)[C@H](CCCN=C(N)N)NC(=O)CNC(=O)[C@H](CC(C)C)NC(=O)[C@H](Cc1ccccc1)NC(=O)[C@H](CCCCN)NC(=O)[C@H](CO)NC(=O)[C@H](Cc1ccccc1)NC(=O)[C@H](Cc1c[nH]c2ccccc12)NC(=O)[C@@H]1CCCN1C(=O)[C@H](CC(C)C)NC(=O)[C@@H](N)Cc1ccccc1)C(=O)N[C@@H](CC(C)C)C(N)=O` [FLPWFSKFLGRIL]?
**A.** MIC [6]: ≥ 48 µM; MIC [7]: 3 µM (≈ 4.87 µg/mL); MIC [8]: 6 µM (≈ 9.74 µg/mL); MIC [9]: 3 µM (≈ 4.87 µg/mL); MIC (Saccharomyces cerevisiae): 12 µM (≈ 19.5 µg/mL); MIC (Staphylococcus capitis 1): 3 µM (≈ 4.87 µg/mL); MIC [10]: 12 µM (≈ 19.5 µg/mL); MIC [11]: 6 µM (≈ 9.74 µg/mL); MIC [12]: 3 µM (≈ 4.87 µg/mL); MIC [13]: 6 µM (≈ 9.74 µg/mL); MIC (Escherichia coli D21): 24 µM (≈ 39 µg/mL); MIC (Acinetobacter junii RT-4): 12 µM (≈ 19.5 µg/mL); MIC (Bacillus megaterium Bm11): 3 µM (≈ 4.87 µg/mL); MIC [14]: 12 µM (≈ 19.5 µg/mL); MIC [15]: 12 µM (≈ 19.5 µg/mL); MIC [16]: 12 µM (≈ 19.5 µg/mL); MIC [17]: 12 µM (≈ 19.5 µg/mL)

**Q.** How did the MIC (Aerococcus viridans) turn out when `CC[C@H](C)[C@@H]1NC(=O)[C@@H]2CSSC[C@H](NC(=O)[C@@H]3CCCN3C(=O)[C@H](CO)NC(=O)[C@H](CCCN=C(N)N)NC1=O)C(=O)N1CCC[C@H]1C(=O)N[C@H](C(=O)N[C@@H](C)C(=O)N[C@@H](CC(N)=O)C(=O)N[C@@H](Cc1ccc(O)cc1)C(=O)NCC(=O)O)CSSC[C@H](NC(=O)CNC(=O)[C@@H]1CCCN1C(=O)[C@H](CCCN=C(N)N)NC(=O)CNC(=O)CNC(=O)[C@H](Cc1ccccc1)NC(=O)[C@H](CCC(N)=O)NC(=O)CNC(=O)CNC(=O)[C@@H](NC(=O)[C@H](Cc1ccccc1)NC(=O)[C@@H]1CCCN1C(=O)[C@H](CCCN=C(N)N)NC(=O)CNC(=O)CNC(=O)[C@H](Cc1ccccc1)NC(=O)[C@@H]1CCCN1C(=O)[C@H](CCCN=C(N)N)NC(=O)CNC(=O)[C@H](Cc1ccc(O)cc1)NC(=O)[C@H](CCCN=C(N)N)NC(=O)[C@H](CCCN=C(N)N)NC(=O)[C@H](CO)NC(=O)[C@@H](NC(=O)[C@H](CCCN=C(N)N)NC(=O)[C@@H]1CCCN1C(=O)[C@@H](N)CO)C(C)C)C(C)C)C(=O)N[C@@H](C(C)C)C(=O)N2` [SPRVSRRYGRPFGGRPFVGGQFGGRPGCVCIRSPCPCANYG] was run?
**A.** 0.39 µM (≈ 1.7 µg/mL)

**Q.** What about the MIC [18] of the same molecule?
**A.** 5.06 µM (≈ 22.1 µg/mL)

**Q.** And the MIC [19]?
**A.** 12.5 µM (≈ 54.6 µg/mL)

**Q.** And the MIC (Vibrio anguillarum)?
**A.** 6.25 µM (≈ 27.3 µg/mL)

**Q.** And the MIC (Bacillus subtilis)?
**A.** 12.5 µM and 10.1 µM

**Q.** And the MIC (Micrococcus luteus)?
**A.** 0.78 µM (≈ 3.41 µg/mL)

**Q.** What about the MIC (Escherichia coli 363) of the same molecule?
**A.** ≥ 50 µM

**Q.** And the MIC (Vibrio harveyi)?
**A.** 1.56 µM (≈ 6.82 µg/mL)

**Q.** What about the MIC (Aeromonas hydrophila) of the same molecule?
**A.** ≥ 50 µM

**Q.** `CC[C@H](C)[C@H](N)C(=O)N[C@@H](CC(C)C)C(=O)N[C@@H](CCCCN)C(=O)N[C@@H](CCCCN)C(=O)N[C@@H](Cc1c[nH]c2ccccc12)C(=O)N1CCC[C@H]1C(=O)N[C@@H](Cc1c[nH]c2ccccc12)C(=O)N[C@@H](Cc1c[nH]c2ccccc12)C(=O)N1CCC[C@H]1C(=O)N[C@@H](Cc1c[nH]c2ccccc12)C(=O)N[C@@H](CCCN=C(N)N)C(=O)N[C@@H](CCCN=C(N)N)C(=O)N[C@@H](CCCCN)C(N)=O` [ILKKWPWWPWRRK] was tested. Which MIC [19] did it give?
**A.** 1.06 µM and 0.532 µM

**Q.** And the MIC [20]?
**A.** 4.25 µM (≈ 8 µg/mL)

**Q.** And the MIC (Salmonella typhimurium)?
**A.** ≥ 34 µM

**Q.** And the MIC [12]?
**A.** 8.51 µM (≈ 16 µg/mL)

**Q.** What about the MIC (Corynebacterium xerosis) of the same molecule?
**A.** 0.266 µM (≈ 0.5 µg/mL)

**Q.** What about the MIC (Staphylococcus aureus MR) of the same molecule?
**A.** 8.51 µM (≈ 16 µg/mL)

**Q.** And the MIC (Staphylococcus aureus)?
**A.** 8.51 µM (≈ 16 µg/mL)

**Q.** And the MIC [14]?
**A.** > 34 µM

**Q.** What about the MIC (Escherichia coli) of the same molecule?
**A.** 2.13 µM and 4.25 µM

**Q.** And the MIC (Pseudomonas aeruginosa)?
**A.** 8.51 µM (≈ 16 µg/mL)

**Q.** What about the MIC [21] of the same molecule?
**A.** 4.25 µM and 2.13 µM

**Q.** What about the MIC [22] of the same molecule?
**A.** 8.51 µM (≈ 16 µg/mL)

**Q.** And the MIC (Enterococcus faecalis)?
**A.** ≥ 34 µM

**Q.** And the MIC [23]?
**A.** 8.51 µM (≈ 16 µg/mL)

— DBAASP
